Patent US20260365670A1, “EGFR INHIBITORS AND USES THEREOF” (DIZAL (JIANGSU) PHARMACEUTICAL CO., LTD., priority 2022, published 2026)
Where two headings read alike, the source gives them in different places.

Key:
[1] = target: T1, EGFR Exon19Del (Homo sapiens, UniProt P00533, DEL746-750); experiment: Inhibition of EGFR Exon19Del biochemical enzymatic activity (HTRF); conditions: 1 mM ATP, 1 h at room temperature
T1 construct: purchased Carna Bio
Method in brief: (§1)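 1 mM ATP, 1 μM biotin-TK peptide, 5 mM MgCl2, 1 mM MnCl2, 0.01% CHAPS, 1 mM DTT, 0.5% DMSO; 1 h RT; EDTA stop; HTRF 665/615 nm; IC50 via 4PL.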

[2] = target: T2, EGFR L858R/T790M (Homo sapiens, UniProt P00533, L858R/T790M); experiment: Inhibition of EGFR L858R/T790M biochemical enzymatic activity (HTRF); conditions: EGFR L858R/T790M, 1 mM ATP, 1 h at room temperature
T2 construct: purchased Carna Bio
Method in brief: as §1

[3] = target: T3, EGFR Exon19Del/T790M (Homo sapiens, UniProt P00533, DEL746-750/T790M); experiment: Inhibition of EGFR Exon19Del/T790M biochemical enzymatic activity (HTRF); conditions: EGFR Exon19Del/T790M, 1 mM ATP, 1 h at room temperature
T3 construct: purchased Carna Bio
Method in brief: as §1

[4] = system: PC-9; experiment: Cell proliferation assay, PC-9 cells (CellTiter-Glo, 72 hours); assay type: cell-based; conditions: PC9 cells, read-out: GI50 PC9
Method in brief: (§2)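 Ba/F3 cells (5000/well) and PC-9 cells (500/well, RPMI1640 with 10% FBS) were plated overnight and then dosed with a compound concentration series. Viable cells were read at day 0 (G0) and after treatment (G3). GI50 came from curve fits of G0-corrected proliferation relative to DMSO.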

[5] = target: T4, EGFR[T790M/C797S/d746-750] (Homo sapiens, UniProt P00533, C797S/DEL746-750/T790M); experiment: Inhibition of EGFR[T790M/C797S/d746-750] biochemical enzymatic activity (HTRF); conditions: 1 mM ATP, 1 h at room temperature
T4 construct: purchased Carna Bio
Method in brief: as §1

[6] = target: T5, EGFR wild type (Homo sapiens, UniProt P00533); experiment: Inhibition of EGFR wild type biochemical enzymatic activity (HTRF); conditions: EGFR wild type, 1 mM ATP, 1 h at room temperature
T5 construct: purchased Carna Bio
Protocol: Biological Example 1: Inhibition of EGFR WT and Mutant Biochemical Enzymatic Activity
The inhibition potency of compounds against these enzymes was assessed using Homogenous Time Resolved Fluorescence approach (HTRF, CisBio. Cat No. 62TKOPEJ).
Inhibitory effects of the compounds were determined by measuring the enzymatic activity of EGFR enzyme phosphorylates 1 μM TK Substrate-biotin in the presence of 1 mM adenosine-5′-triphosphate (ATP) and varying concentrations of the test compound. The enzyme reaction buffer contains 5 mM MgCl2, 1 mM MnC12, 0.01% CHAPS, 1 mM dithiothreitol (DTT), 0.5% dimethylsulfoxide (DMSO), and 1× supplemented enzymatic buffer. The WT and mutant EGFR enzymes (SignalChem) were added to plates containing inhibitors, followed by activation of the kinase reaction by addition of ATP and peptide substrates. After incubation for 1 h at room temperature, the reaction was stopped by the addition of the detection reagent mix containing EDTA. The fluorescence was measured at 615 nm and 665 nm, respectively with excitation wavelength at 320 nm. The calculated signal ratio of 665 nm/615 nm is proportional to the kinase activity. The concentration of compound producing 50% inhibition of the respective kinase (IC50) was calculated using four-parameter logistic fit with XL-FIT.

[7] = target: T6, EGFR (d746-750 C797S) (Homo sapiens, UniProt P00533, C797S/DEL746-750); experiment: Inhibition of EGFR (d746-750 C797S) biochemical enzymatic activity (HTRF); conditions: EGFR (d746-750 C797S), 1 mM ATP, 1 h at room temperature
T6 construct: purchased signalchem
Method in brief: as §1

[8] = system: Ba/F3 cells expressing EGFR mutations; experiment: Cell proliferation assay, Ba/F3 cells expressing EGFR mutations (CellTiter-Glo, 72 hours); assay type: cell-based
Method in brief: as §2

[9] = target: T7, EGFR (C797S L858R) (Homo sapiens, UniProt P00533, C797S/L858R); experiment: Inhibition of EGFR (C797S L858R) biochemical enzymatic activity (HTRF); conditions: EGFR (C797S L858R), 1 mM ATP, 1 h at room temperature
T7 construct: purchased signalchem
Method in brief: as §1

[10] = target: T8, EGFR[T790M/C797S/L858R] (Homo sapiens, UniProt P00533, C797S/L858R/T790M); experiment: Inhibition of EGFR[T790M/C797S/L858R] biochemical enzymatic activity (HTRF); conditions: EGFR[T790M/C797S/L858R], 1 mM ATP, 1 h at room temperature
T8 construct: purchased Carna Bio
Method in brief: as §1

[11] = target: T9, EGFR L858R (Homo sapiens, UniProt P00533, L858R); experiment: Inhibition of EGFR L858R biochemical enzymatic activity (HTRF); conditions: 1 mM ATP, 1 h at room temperature
T9 construct: purchased Carna Bio
Method in brief: as §1

[12] = EGFR Exon19Del, read-out: IC50 @Del19
[13] = EGFR[T790M/C797S/d746-750], read-out: IC50 @T790M - C797S - Del19
[14] = Mus musculus, BaF3, 72 h, BaF3 cells, EGFR DEL19 - C797S, read-out: GI50 DEL19 - C797S/BaF3
[15] = Mus musculus, BaF3, 72 h, BaF3 cells, EGFR DEL19 - T790-C797S, read-out: GI50 DEL19 - T790-C797S/BaF3
[16] = Mus musculus, BaF3, 72 h, BaF3 cells, EGFR L858R - C797S, read-out: GI50 L858R - C797S/BaF3
[17] = Mus musculus, BaF3, 72 h, BaF3 cells, EGFR L858R - T790-C797S, read-out: GI50 L858R - T790-C797S/BaF3
[18] = Mus musculus, BaF3, 72 h, BaF3 cells, EGFR L858R - T790M, read-out: GI50 L858R - T790M/BaF3
[19] = Mus musculus, BaF3, 72 h, BaF3 cells, EGFR L858R, read-out: GI50 L858R/BaF3
[20] = Mus musculus, BaF3, 72 h, EGFR DEL19 - T790M, read-out: GI50 DEL19 - T790M
[21] = read-out: IC50 @T790M- C797S - L858R
[22] = BaF3 cells, EGFR DEL19 - C797S, read-out: GI50 DEL19 - C797S/BaF3
[23] = BaF3 cells, EGFR DEL19 - T790-C797S, read-out: GI50 DEL19 - T790-C797S/BaF3
[24] = BaF3 cells, EGFR L858R - C797S, read-out: GI50 L858R - C797S/BaF3
[25] = BaF3 cells, EGFR L858R - T790-C797S, read-out: GI50 L858R - T790-C797S/BaF3
[26] = BaF3 cells, EGFR L858R - T790M, read-out: GI50 L858R - T790M/BaF3
[27] = BaF3 cells, EGFR L858R, read-out: GI50 L858R/BaF3
[28] = EGFR DEL19 - T790M, read-out: GI50 DEL19 - T790M

T4 sequence (P00533 with tags, fused parts or gaps DEL746-750/T790M/C797S limits assumed): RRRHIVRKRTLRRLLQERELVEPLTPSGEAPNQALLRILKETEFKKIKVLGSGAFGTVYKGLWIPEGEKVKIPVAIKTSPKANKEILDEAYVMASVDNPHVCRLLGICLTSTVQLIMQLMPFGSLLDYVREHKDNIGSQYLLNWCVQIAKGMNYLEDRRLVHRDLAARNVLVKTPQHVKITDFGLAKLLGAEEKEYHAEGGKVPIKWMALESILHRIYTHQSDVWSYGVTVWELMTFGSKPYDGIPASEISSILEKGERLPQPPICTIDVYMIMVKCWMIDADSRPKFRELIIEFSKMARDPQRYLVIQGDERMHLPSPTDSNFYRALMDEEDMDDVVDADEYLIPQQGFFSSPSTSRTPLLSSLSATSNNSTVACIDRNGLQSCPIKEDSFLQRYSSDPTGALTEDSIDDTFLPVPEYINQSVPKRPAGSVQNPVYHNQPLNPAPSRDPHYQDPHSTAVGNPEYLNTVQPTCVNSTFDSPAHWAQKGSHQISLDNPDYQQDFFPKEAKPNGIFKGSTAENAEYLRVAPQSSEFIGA
T2 sequence (P00533 25-1210 T790M/L858R): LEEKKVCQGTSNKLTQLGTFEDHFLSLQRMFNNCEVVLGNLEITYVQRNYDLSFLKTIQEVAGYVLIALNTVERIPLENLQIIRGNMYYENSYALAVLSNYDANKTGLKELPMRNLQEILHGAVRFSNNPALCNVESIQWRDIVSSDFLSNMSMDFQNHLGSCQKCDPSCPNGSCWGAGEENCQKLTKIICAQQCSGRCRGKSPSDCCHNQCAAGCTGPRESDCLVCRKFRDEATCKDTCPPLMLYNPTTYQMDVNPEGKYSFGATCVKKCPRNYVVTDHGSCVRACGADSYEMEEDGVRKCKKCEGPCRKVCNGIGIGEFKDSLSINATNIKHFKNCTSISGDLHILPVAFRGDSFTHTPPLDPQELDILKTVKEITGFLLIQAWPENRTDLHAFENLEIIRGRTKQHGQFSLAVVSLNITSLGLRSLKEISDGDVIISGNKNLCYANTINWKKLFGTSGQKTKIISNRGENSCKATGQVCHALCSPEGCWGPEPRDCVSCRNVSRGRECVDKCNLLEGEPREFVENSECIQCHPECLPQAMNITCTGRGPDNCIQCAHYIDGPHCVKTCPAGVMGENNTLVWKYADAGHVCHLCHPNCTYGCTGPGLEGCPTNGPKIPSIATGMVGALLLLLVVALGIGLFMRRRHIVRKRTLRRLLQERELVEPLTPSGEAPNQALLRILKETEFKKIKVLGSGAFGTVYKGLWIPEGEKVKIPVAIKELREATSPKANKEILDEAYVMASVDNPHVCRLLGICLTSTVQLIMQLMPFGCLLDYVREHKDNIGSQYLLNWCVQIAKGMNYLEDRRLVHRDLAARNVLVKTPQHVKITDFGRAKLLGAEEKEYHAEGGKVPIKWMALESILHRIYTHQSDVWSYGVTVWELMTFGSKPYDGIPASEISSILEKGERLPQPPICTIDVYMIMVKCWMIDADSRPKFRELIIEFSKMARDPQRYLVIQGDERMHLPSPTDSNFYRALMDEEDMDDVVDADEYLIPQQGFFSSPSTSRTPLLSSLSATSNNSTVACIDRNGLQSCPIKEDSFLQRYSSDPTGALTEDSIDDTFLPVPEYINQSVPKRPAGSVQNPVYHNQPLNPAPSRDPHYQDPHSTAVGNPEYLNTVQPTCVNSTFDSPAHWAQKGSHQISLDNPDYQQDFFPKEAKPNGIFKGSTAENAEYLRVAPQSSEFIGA
T8 sequence (P00533 25-1210 T790M/C797S/L858R): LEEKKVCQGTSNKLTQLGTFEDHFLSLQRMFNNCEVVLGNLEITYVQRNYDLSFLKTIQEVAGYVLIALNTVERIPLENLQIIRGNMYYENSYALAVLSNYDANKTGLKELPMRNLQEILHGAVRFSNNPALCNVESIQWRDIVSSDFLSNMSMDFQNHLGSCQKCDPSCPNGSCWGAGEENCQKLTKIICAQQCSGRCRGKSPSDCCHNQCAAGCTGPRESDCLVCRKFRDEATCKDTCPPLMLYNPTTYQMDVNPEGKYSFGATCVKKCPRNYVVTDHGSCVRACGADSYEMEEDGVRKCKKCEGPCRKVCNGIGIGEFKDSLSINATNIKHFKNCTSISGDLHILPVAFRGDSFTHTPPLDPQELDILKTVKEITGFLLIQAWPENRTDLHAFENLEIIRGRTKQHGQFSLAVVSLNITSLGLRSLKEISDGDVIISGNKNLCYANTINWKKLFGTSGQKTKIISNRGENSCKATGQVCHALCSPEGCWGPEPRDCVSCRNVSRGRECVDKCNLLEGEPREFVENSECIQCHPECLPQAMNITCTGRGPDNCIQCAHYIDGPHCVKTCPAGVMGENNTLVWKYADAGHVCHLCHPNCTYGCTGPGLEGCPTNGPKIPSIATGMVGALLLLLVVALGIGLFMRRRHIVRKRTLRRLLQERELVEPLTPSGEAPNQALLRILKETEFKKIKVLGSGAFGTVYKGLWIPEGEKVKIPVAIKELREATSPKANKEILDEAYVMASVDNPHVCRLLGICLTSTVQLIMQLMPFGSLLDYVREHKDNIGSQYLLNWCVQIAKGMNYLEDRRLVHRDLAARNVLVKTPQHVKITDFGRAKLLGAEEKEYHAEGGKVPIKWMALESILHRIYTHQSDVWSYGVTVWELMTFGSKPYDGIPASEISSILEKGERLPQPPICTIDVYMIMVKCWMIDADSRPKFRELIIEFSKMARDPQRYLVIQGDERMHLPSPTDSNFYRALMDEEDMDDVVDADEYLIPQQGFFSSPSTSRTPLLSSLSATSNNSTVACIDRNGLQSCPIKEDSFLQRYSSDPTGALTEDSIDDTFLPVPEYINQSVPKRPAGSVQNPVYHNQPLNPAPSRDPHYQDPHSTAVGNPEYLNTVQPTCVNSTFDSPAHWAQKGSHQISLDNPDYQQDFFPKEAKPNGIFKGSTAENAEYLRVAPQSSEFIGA
T6 sequence (P00533 with tags, fused parts or gaps DEL746-750/C797S limits assumed): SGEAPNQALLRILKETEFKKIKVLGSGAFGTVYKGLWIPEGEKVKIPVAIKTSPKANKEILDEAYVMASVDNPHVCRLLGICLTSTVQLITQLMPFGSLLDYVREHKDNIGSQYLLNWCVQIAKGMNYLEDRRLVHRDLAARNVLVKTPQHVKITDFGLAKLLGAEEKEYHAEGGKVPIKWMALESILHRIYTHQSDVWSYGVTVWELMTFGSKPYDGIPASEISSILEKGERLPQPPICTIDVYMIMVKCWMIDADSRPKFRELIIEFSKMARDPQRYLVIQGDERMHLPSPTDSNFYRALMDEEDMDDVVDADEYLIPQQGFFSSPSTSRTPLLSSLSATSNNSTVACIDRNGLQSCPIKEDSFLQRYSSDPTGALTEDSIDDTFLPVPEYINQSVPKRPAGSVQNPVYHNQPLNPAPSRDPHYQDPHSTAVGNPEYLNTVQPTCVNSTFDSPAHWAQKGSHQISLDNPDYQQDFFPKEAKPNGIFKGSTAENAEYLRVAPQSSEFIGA
T1 sequence (P00533 with tags, fused parts or gaps DEL746-750 limits assumed): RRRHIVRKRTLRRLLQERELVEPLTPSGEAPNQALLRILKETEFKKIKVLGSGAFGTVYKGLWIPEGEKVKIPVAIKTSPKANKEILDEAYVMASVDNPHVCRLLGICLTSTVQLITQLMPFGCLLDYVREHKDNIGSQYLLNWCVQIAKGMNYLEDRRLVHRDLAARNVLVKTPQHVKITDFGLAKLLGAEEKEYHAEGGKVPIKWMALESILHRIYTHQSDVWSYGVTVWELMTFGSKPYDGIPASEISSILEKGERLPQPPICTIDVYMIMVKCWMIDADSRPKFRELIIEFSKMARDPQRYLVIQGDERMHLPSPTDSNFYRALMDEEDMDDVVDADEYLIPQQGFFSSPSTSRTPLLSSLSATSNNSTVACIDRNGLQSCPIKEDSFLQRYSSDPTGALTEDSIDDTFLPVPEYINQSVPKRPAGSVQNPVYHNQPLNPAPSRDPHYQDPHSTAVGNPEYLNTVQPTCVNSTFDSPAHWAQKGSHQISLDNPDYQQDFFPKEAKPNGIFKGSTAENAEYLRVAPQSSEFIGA
T3 sequence (P00533 with tags, fused parts or gaps DEL746-750/T790M limits assumed): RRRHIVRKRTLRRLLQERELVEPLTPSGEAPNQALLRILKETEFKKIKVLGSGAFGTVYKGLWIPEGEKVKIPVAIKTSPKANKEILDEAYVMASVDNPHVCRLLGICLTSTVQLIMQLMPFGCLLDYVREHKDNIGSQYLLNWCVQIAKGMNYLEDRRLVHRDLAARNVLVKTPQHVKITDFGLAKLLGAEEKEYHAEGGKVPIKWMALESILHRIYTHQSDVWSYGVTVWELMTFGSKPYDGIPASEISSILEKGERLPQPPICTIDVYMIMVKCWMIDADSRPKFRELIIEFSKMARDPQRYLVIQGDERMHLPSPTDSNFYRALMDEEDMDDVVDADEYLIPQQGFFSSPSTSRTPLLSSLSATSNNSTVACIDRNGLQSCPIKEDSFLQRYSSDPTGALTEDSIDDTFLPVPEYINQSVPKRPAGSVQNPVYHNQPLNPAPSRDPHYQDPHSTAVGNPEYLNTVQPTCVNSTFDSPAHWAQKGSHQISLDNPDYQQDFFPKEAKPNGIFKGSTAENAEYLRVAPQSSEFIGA

| SMILES | IC50 [1, 12] | IC50 ([2]; read-out: IC50 @L858R-T790M) | IC50 ([3]; read-out: IC50 @Del19-T790M) | GI50 ([4]; Homo sapiens, PC-9, 72 h) | IC50 [5, 13] | IC50 ([6]; read-out: IC50 @WT) | IC50 ([7]; read-out: IC50 @Del19-C797S) | GI50 [8, 14] | GI50 [8, 15] | IC50 ([9]; read-out: IC50 @L858-C797S) | IC50 [10, 21] | IC50 ([11]; read-out: IC50 @L858R) | GI50 [4] | GI50 [8, 22] | GI50 [8, 23] | GI50 [8, 24] | GI50 [8, 25] | GI50 [8, 26] | GI50 [8, 27] | GI50 [8, 28] | further results |
| --- | --- | --- | --- | --- | --- | --- | --- | --- | --- | --- | --- | --- | --- | --- | --- | --- | --- | --- | --- | --- | --- |
| Cc1cc2cc(n1)-c1cnn(C)c1OCCN1CCOCC(C1)n1c(nc3ccccc31)NC2=O (single isomer, unassigned) [Example B7A, 15,21-dimethyl-23,29-dioxa-2,9,11,16,20,21,26-heptaazahexacyclo[24.4.1.1^{13,17}.0^{2,10}.0^{3,8}.0^{18,22}]dotriaconta-3,5,7,9,13(32),14,16,18(22),19-nonaen-12-one] | 1210 nM | 2630 nM | 104 nM | 427 nM | 62 nM | > 5000 nM | 611 nM | 228 nM | 186 nM | > 5000 nM | 1650 nM | > 5000 nM |  |  |  |  |  |  |  |  | GI50 [8, 16]: 189 nM; GI50 [8, 17]: 295 nM; GI50 [8, 18]: 383 nM; GI50 [8, 19]: 934 nM; GI50 [8, 20]: 265 nM |
| Cc1cc2cc(n1)-c1cnn(C)c1OCCN1CC3CCC(C3)(C1)n1c(nc3ccc(N4CCN(C)CC4)cc31)NC2=O (single isomer, unassigned) [Example B9A, 15,21-Dimethyl-5-(4-methylpiperazin-1-yl)-23-oxa-2,9,11,16,20,21,26-heptaazaheptacyclo[24.4.1.1^{1,28}.1^{13,17}.0^{2,10}.0^{3,8}.0^{18,22}]tritriaconta-3,5,7,9,13,15,17(33),18(22),19-nonaen-12-one] | 432 nM | > 5000 nM | 1070 nM | 438 nM | 245 nM | > 5000 nM | 454 nM | 83 nM | 107 nM | > 5000 nM | > 5000 nM | > 5000 nM |  |  |  |  |  |  |  |  | GI50 [8, 16]: 386 nM; GI50 [8, 17]: 46 nM; GI50 [8, 18]: 253 nM; GI50 [8, 19]: 471 nM; GI50 [8, 20]: 135 nM |
| Cc1cc2cc(n1)-c1cnn(C)c1OCCN1CC3CCC(C3)(C1)n1c(nc3ccc(N4CCC(N(C)C)CC4)cc31)NC2=O (single isomer, unassigned) [Example B40A, 5-[4-(dimethylamino)piperidin-1-yl]-15,21-dimethyl-23-oxa-2,9,11,16,20,21,26-heptaazaheptacyclo[24.4.1.1^{1,28}.1^{13,17}.0^{2,10}.0^{3,8}.0^{18,22}]tritriaconta-3,5,7,9,13,15,17(33),18(22),19-nonaen-12-one] |  |  |  |  |  |  |  |  |  |  |  |  | 950 nM | 212 nM | 164 nM | 312 nM | 41 nM | 194 nM | 877 nM | 258 nM | IC50 ([1]; IC50 @Del19, EGFR Exon19Del): > 5000 nM; IC50 ([2]; IC50 @L858R-T790M): > 5000 nM; IC50 ([3]; IC50 @Del19-T790M): 430 nM; IC50 ([5]; IC50 @T790M - C797S - Del19, EGFR[T790M/C797S/d746-750]): 123 nM; IC50 ([6]; IC50 @WT): > 5000 nM; IC50 ([7]; IC50 @Del19-C797S): 2480 nM; IC50 ([9]; IC50 @L858-C797S): > 5000 nM; IC50 ([10]; IC50 @T790M- C797S - L858R): > 5000 nM; IC50 ([11]; IC50 @L858R): > 5000 nM |
| Cc1cc2cc(n1)-c1cnn(C)c1OCCN1CC3CCC(C3)(C1)n1c(nc3ccc(N4CC[C@H](N(C)C)C4)cc31)NC2=O (single isomer, unassigned) [Example B41A] | > 5000 nM | > 5000 nM | 3670 nM |  | 1300 nM | > 5000 nM | > 5000 nM |  |  | > 5000 nM | > 5000 nM | > 5000 nM | 2300 nM | 302 nM | 436 nM | 776 nM | 39 nM | 315 nM | 2790 nM | 348 nM |  |
| Cc1cc2cc(n1)-c1cnn(C)c1OCCN1CC3CCC(C3)(C1)n1c(nc3ccc(N4CC[C@@H](N(C)C)C4)cc31)NC2=O (single isomer, unassigned) [Example B42A] | > 5000 nM | > 5000 nM | 2480 nM |  | 1080 nM | > 5000 nM | > 5000 nM |  |  | > 5000 nM | > 5000 nM | > 5000 nM | 1590 nM | 865 nM | 476 nM | 602 nM | 75 nM | 354 nM | 1770 nM | 468 nM |  |
| Cc1cc2cc(n1)-c1cnn(C)c1OCCN1CC3CCC(C3)(C1)n1c(nc3ccc(N4CC[C@@H](N(C)C)C4)cc31)NC2=O (single isomer, unassigned) [Example B42B] | 13 nM | 9.9 nM | 10 nM |  | 6.3 nM | 734 nM | 7 nM |  |  | 15 nM | 5.7 nM | 51 nM | 9 nM | 2 nM | 2 nM | 3 nM | 2 nM | 2 nM | 5 nM | 2 nM |  |
